Results from patent publication US8716303B2, “N-(hetero)aryl-pyrrolidine derivatives of pyrazol-4-yl-pyrrolo[2,3-d]pyrimidines and pyrrol-3-yl-pyrrolo[2,3-d]pyrimidines as janus kinase inhibitors” (Incyte Corporation, priority 2009, dated 2014).
Structures can show the parent of a compound that is named as a salt.

Key:
[1] = molecular target: T1, Jak2 (a.a. 828-1132) (Homo sapiens, UniProt O60674); assay: In vitro JAK kinase assay (HTRF, phosphorylation of a biotinylated peptide), JAK2, reported as JAK2/JAK1 ratio; format: biochemical; conditions: Assay Conditions 1 mM ATP
T1 construct: Jak2 (a.a. 828-1132); His tag (N); made in house; host or cells: insect cells (baculovirus)
T1 sequence (O60674 828-1132): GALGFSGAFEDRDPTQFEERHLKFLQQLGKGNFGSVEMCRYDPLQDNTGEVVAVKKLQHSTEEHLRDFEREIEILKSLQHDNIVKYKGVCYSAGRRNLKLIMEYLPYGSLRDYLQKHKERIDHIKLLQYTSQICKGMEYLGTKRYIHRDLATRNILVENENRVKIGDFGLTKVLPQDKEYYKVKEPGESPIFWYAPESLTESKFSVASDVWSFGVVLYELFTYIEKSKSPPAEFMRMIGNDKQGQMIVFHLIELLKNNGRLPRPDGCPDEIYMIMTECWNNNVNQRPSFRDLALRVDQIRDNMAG

[2] = molecular target: T2, human JAK1 (a.a. 837-1142) (Homo sapiens, UniProt P23458); assay: In vitro JAK kinase assay (HTRF, phosphorylation of a biotinylated peptide), JAK1; format: biochemical; conditions: Assay Conditions 1 mM ATP
T2 construct: human JAK1 (a.a. 837-1142); His tag (N); made in house; host or cells: insect cells (baculovirus)
T2 sequence (P23458 849-1154): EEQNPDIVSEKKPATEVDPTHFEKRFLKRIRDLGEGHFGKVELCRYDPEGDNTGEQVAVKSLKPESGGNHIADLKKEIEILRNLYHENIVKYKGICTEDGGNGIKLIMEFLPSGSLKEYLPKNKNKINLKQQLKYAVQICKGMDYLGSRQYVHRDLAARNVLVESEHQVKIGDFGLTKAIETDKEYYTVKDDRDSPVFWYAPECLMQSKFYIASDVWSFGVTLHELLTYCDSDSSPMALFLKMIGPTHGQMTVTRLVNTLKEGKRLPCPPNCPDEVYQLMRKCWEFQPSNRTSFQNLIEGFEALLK
Method in brief: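 His-tagged catalytic domains (JAK1 a.a. 837-1142, JAK2 a.a. 828-1132) from insect cells phosphorylate 500 nM biotinylated peptide in 50 mM Tris pH 7.8, 100 mM NaCl, 5 mM DTT; ATP at Km (90 μM JAK1, 30 μM JAK2) or 1 mM, as indicated. 1 h at RT; EDTA stop, HTRF readout; IC50s.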

| JAK2/JAK1 IC50 ratio [1] | IC50 [2] | Compound |
| --- | --- | --- |
| 4.0 | < 0.05 µM | COCc1c(F)cnc(N2CC[C@H]([C@H](CC#N)n3cc(-c4ncnc5[nH]ccc45)cn3)C2)c1F [Example 101, (3S)-3-{(3S)-1-[3,5-difluoro-4-(methoxymethyl)pyridin-2-yl]pyrrolidin-3-yl}-3-[4-(7H-pyrrolo[2,3-d]pyrimidin-4-yl)-1H-pyrazol-1-yl]propanenitrile trifluoroacetate] |
| 12.8 | < 0.05 µM | N#CC[C@@H]([C@H]1CCN(c2ncc3ncsc3n2)C1)n1cc(-c2ncnc3[nH]ccc23)cn1 [Example 102, (3S)-3-[4-(7H-pyrrolo[2,3-d]pyrimidin-4-yl)-1H-pyrazol-1-yl]-3-[(3S)-1-[1,3]thiazolo[5,4-d]pyrimidin-5-ylpyrrolidin-3-yl]propanenitrile bis(trifluoroacetate)] |
| 22.8 | < 0.05 µM | N#CC[C@@H]([C@H]1CCN(c2nccc(C(F)F)c2C#N)C1)n1cc(-c2ncnc3[nH]ccc23)cn1 [Example 103, 2-((3S)-3-{(1S)-2-cyano-1-[4-(7H-pyrrolo[2,3-d]pyrimidin-4-yl)-1H-pyrazol-1-yl]ethyl}pyrrolidin-1-yl)-4-(difluoromethyl)nicotinonitrile bis(trifluoroacetate)] |
| 5.9 | < 0.05 µM | COc1ncc(F)c(N2CC[C@H]([C@H](CC#N)n3cc(-c4ncnc5[nH]ccc45)cn3)C2)n1 [Example 104, (S)-3-(4-(7H-pyrrolo[2,3-d]pyrimidin-4-yl)-1H-pyrazol-1-yl)-3-((S)-1-(5-fluoro-2-methoxypyrimidin-4-yl)pyrrolidin-3-yl)propanenitrile trifluoroacetate salt] |
| 3.0 | < 0.05 µM | N#CC[C@@H]([C@H]1CCN(c2nc(Cl)ccc2N)C1)n1cc(-c2ncnc3[nH]ccc23)cn1 [Example 105, (S)-3-(4-(7H-pyrrolo[2,3-d]pyrimidin-4-yl)-1H-pyrazol-1-yl)-3-((S)-1-(3-amino-6-chloropyridin-2-yl)pyrrolidin-3-yl)propanenitrile trifluoroacetate salt] |
| 12.6 | < 0.05 µM | N#CC[C@@H]([C@H]1CCN(c2ccnnc2C#N)C1)n1cc(-c2ncnc3[nH]ccc23)cn1 [Example 106, 4-((S)-3-((S)-1-(4-(7H-pyrrolo[2,3-d]pyrimidin-4-yl)-1H-pyrazol-1-yl)-2-cyanoethyl)pyrrolidin-1-yl) pyridazine-3-carbonitrile trifluoroacetate salt] |
| 4.8 | < 0.05 µM | N#CC[C@@H]([C@H]1CCN(c2ncc(C#N)cc2F)C1)n1cc(-c2ncnc3[nH]ccc23)cn1 [Example 107, 6-((S)-3-((S)-1-(4-(7H-pyrrolo[2,3-d]pyrimidin-4-yl)-1H-pyrazol-1-yl)-2-cyanoethyl)pyrrolidin-1-yl)-5-fluoronicotinonitrile trifluoroacetate salt] |
| 5.7 | < 0.05 µM | N#CC[C@@H]([C@H]1CCN(c2ncc(F)cc2C#N)C1)n1cc(-c2ncnc3[nH]ccc23)cn1 [Example 108, 2-((S)-3-((S)-1-(4-(7H-pyrrolo[2,3-d]pyrimidin-4-yl)-1H-pyrazol-1-yl)-2-cyanoethyl)pyrrolidin-1-yl)-5-fluoronicotinonitrile trifluoroacetate salt] |
| 5.0 | < 0.05 µM | Cc1cnc(N2CC[C@H]([C@H](CC#N)n3cc(-c4ncnc5[nH]ccc45)cn3)C2)c(C#N)c1 [Example 109, 2-((S)-3-((S)-1-(4-(7H-pyrrolo[2,3-d]pyrimidin-4-yl)-1H-pyrazol-1-yl)-2-cyanoethyl)pyrrolidin-1-yl)-5-methylnicotinonitrile trifluoroacetate salt] |
| 17.6 | < 0.05 µM | N#CC[C@@H]([C@H]1CCN(c2ncnc(C(F)F)c2C#N)C1)n1cc(-c2ncnc3[nH]ccc23)cn1 [Example 110, 4-((S)-3-((S)-1-(4-(7H-pyrrolo[2,3-d]pyrimidin-4-yl)-1H-pyrazol-1-yl)-2-cyanoethyl)pyrrolidin-1-yl)-6-(difluoromethyl)pyrimidine-5-carbonitrile trifluoroacetate salt] |
| 37.6 | < 0.05 µM | N#CC[C@@H]([C@H]1CCN(c2cccc(C(F)F)c2C#N)C1)n1cc(-c2ncnc3[nH]ccc23)cn1 [Example 111, 2-((S)-3-((S)-1-(4-(7H-pyrrolo[2,3-d]pyrimidin-4-yl)-1H-pyrazol-1-yl)-2-cyanoethyl)pyrrolidin-1-yl)-6-(difluoromethyl)benzonitrile trifluoroacetate salt] |
| 35.7 | < 0.05 µM | COCc1cccc(N2CC[C@H]([C@H](CC#N)n3cc(-c4ncnc5[nH]ccc45)cn3)C2)c1C#N [Example 112, 2-((S)-3-((S)-1-(4-(7H-pyrrolo[2,3-d]pyrimidin-4-yl)-1H-pyrazol-1-yl)-2-cyanoethyl)pyrrolidin-1-yl)-6-(methoxymethyl)benzonitrile] |
| 3.7 | < 0.05 µM | N#Cc1ncccc1N1CC[C@H](C(CF)n2cc(-c3ncnc4[nH]ccc34)cn2)C1 (stereo partly drawn) [Example 117, 3-((3S)-3-{2-fluoro-1-[4-(7H-pyrrolo[2,3-d]pyrimidin-4-yl)-1H-pyrazol-1-yl]ethyl}pyrrolidin-1-yl)pyridine-2-carbonitrile trifluoroacetate] |
| 2.8 | < 0.05 µM | N#Cc1cccnc1N1CC[C@H](C(CF)n2cc(-c3ncnc4[nH]ccc34)cn2)C1 (stereo partly drawn) [Example 118, 2-((3S)-3-{2-fluoro-1-[4-(7H-pyrrolo[2,3-d]pyrimidin-4-yl)-1H-pyrazol-1-yl]ethyl}pyrrolidin-1-yl)nicotinonitrile trifluoroacetate] |
| 7.6 | < 0.05 µM | O=S1(=O)CCc2ccc(N3CC[C@H](C(CF)n4cc(-c5ncnc6[nH]ccc56)cn4)C3)nc21 (stereo partly drawn) [Example 119, 4-(1-{1-[(3S)-1-(1,1-dioxido-2,3-dihydrothieno[2,3-b]pyridin-6-yl)pyrrolidin-3-yl]-2-fluoroethyl}-1H-pyrazol-4-yl)-7H-pyrrolo[2,3-d]pyrimidine trifluoroacetate] |
| 3.5 | < 0.05 µM | N#Cc1ccnc(N2CC[C@H](C(CF)n3cc(-c4ncnc5[nH]ccc45)cn3)C2)c1C#N (stereo partly drawn) [Example 120, 2-((3S)-3-(1-(4-(7H-pyrrolo[2,3-d]pyrimidin-4-yl)-1H-pyrazol-1-yl)-2-fluoroethyl)pyrrolidin-1-yl)pyridine-3,4-dicarbonitrile trifluoroacetate] |
| 4.4 | < 0.05 µM | N#Cc1cccc(N2CC[C@H](C(CF)n3cc(-c4ncnc5[nH]ccc45)cn3)C2)c1C#N (stereo partly drawn) [Example 121, 3-((3S)-3-{2-fluoro-1-[4-(7H-pyrrolo[2,3-d]pyrimidin-4-yl)-1H-pyrazol-1-yl]ethyl}pyrrolidin-1-yl)phthalonitrile trifluoroacetate] |
| 188.0 | < 0.05 µM | N#CC[C@@H]([C@H]1CCN(c2nccc(I)c2C#N)C1)n1cc(-c2ncnc3[nH]ccc23)cn1 [Example 122, 2-((3S)-3-{(1S)-2-cyano-1-[4-(7H-pyrrolo[2,3-d]pyrimidin-4-yl)-1H-pyrazol-1-yl]ethyl}pyrrolidin-1-yl)-4-iodonicotinonitrile trifluoroacetate] |
| >16.7 | < 0.05 µM | N#CC[C@@H]([C@H]1CCN(c2ccnc(Cl)c2C#N)C1)n1cc(-c2ncnc3[nH]ccc23)cn1 [Example 123, 2-chloro-4-((3S)-3-{(1S)-2-cyano-1-[4-(7H-pyrrolo[2,3-d]pyrimidin-4-yl)-1H-pyrazol-1-yl]ethyl}pyrrolidin-1-yl)nicotinonitrile trifluoroacetate] |
| >10.5 | < 0.05 µM | N#CC[C@@H]([C@H]1CCN(c2ccnc(C#N)c2C#N)C1)n1cc(-c2ncnc3[nH]ccc23)cn1 [Example 124, 4-((3S)-3-{(1S)-2-cyano-1-[4-(7H-pyrrolo[2,3-d]pyrimidin-4-yl)-1H-pyrazol-1-yl]ethyl}pyrrolidin-1-yl)pyridine-2,3-dicarbonitrile trifluoroacetate] |
| 132.5 | < 0.05 µM | N#CC[C@@H]([C@H]1CCN(c2ccc(Cl)nc2Cl)C1)n1cc(-c2ncnc3[nH]ccc23)cn1 [Example 125, (3S)-3-[(3S)-1-(2,6-dichloropyridin-3-yl)pyrrolidin-3-yl]-3-[4-(7H-pyrrolo[2,3-d]pyrimidin-4-yl)-1H-pyrazol-1-yl]propanenitrile trifluoroacetate] |
| 5.9 | < 0.05 µM | N#Cc1ncsc1N1CC[C@H](C(CF)n2cc(-c3ncnc4[nH]ccc34)cn2)C1 (stereo partly drawn) [Example 126, 5-((3S)-3-{2-fluoro-1-[4-(7H-pyrrolo[2,3-d]pyrimidin-4-yl)-1H-pyrazol-1-yl]ethyl}pyrrolidin-1-yl)-1,3-thiazole-4-carbonitrile trifluoroacetate] |
| 11.0 | < 0.05 µM | CSc1ccnc(N2CC[C@H]([C@H](CC#N)n3cc(-c4ncnc5[nH]ccc45)cn3)C2)c1C#N [Example 127, 2-((3S)-3-{(1S)-2-cyano-1-[4-(7H-pyrrolo[2,3-d]pyrimidin-4-yl)-1H-pyrazol-1-yl]ethyl}pyrrolidin-1-yl)-4-(methylthio)nicotinonitrile trifluoroacetate] |
| 4.7 | < 0.05 µM | CS(=O)(=O)c1ccnc(N2CC[C@H]([C@H](CC#N)n3cc(-c4ncnc5[nH]ccc45)cn3)C2)c1C#N [Example 128, 2-((3S)-3-{(1S)-2-cyano-1-[4-(7H-pyrrolo[2,3-d]pyrimidin-4-yl)-1H-pyrazol-1-yl]ethyl}pyrrolidin-1-yl)-4-(methylsulfonyl)nicotinonitrile] |
